Data on eight compounds can be found in PMC8585690 (Toxicology, 2021).

As usually defined, the AUC is concentration integrated over time. Usually bioavailability stands for the share of a dose that reaches the circulation, judged against a reference dose that is usually intravenous. Broadly, the fraction unbound is free concentration divided by total concentration.

Data set [1] relates to primary human hepatocytes or human iPSC-derived hepatocytes. The settings on record: for underprediction of clearance by LAMPS compared to in vivo: Day 1 (24 hr) clearance vs in vivo intrinsic clearance.
Another data set relates to plasma protein. The settings on record: cited from earlier work; for plasma free fraction, previously reported measurement: ref Sakolish et al. 2021; for Fub, plasma: representative range of literature-reported values, ref see Methods.
The conditions of data set [2]: cited from earlier work; for estimated clearance: ref Kadam et al. 2013.
For another data set, the system named is Hepatocyte. The note with it: metabolizing enzymes and conjugation pathways; cited from earlier work.
The nature of data set [3]: Literature-based in vivo clinical clearance, AUC and bioavailability. The note with it: for mean oral clearance of available literature values: mean across studies, no further adjustment; for bioavailability: in vivo.
In data set [4] the test system is primary human hepatocytes or human iPSC-derived hepatocytes. Description: Hepatic clearance in monolayer culture. The class given is in vitro ADME. The settings on record: 2D culture; in most cases primary cells exhibited greater clearance.
The test system is the same in data set [5]. The settings on record: as previously reported; ref Sakolish et al. 2021; cited from earlier work.
Data set [6] in a line: Plasma protein binding / plasma free fraction. Format: in vitro ADME. The settings on record: human.
Data set [7] relates to microphysiological system. The note with it: ref Marin et al. (2019); cited from earlier work.

Several values for one entry are separate records, joined by “and”; a condition that tells them apart may be missing. Equal values may be shown once. Read-outs that look alike come from different tables or passages of the source. Some results are limits rather than exact numbers.

As to `Cn1c(=O)c2c(ncn2C)n(C)c1=O` [Caffeine], the “in vitro intrinsic clearance as a function of time” value in data set [1] (10-day experimental period, all four model systems (2D and 3D, primary and iPSC-derived hepatocytes)) is listed as “decline in clearance was also observed”. Besides, the “underprediction of clearance by LAMPS compared to in vivo” value in data set [1] is reported as under 5 fold. In the data set on plasma protein (equilibrium dialysis, ref Lelo et al. 1986), the plasma free fraction is given as 0.68. Further, the “plasma free fraction, previously reported measurement” value with plasma protein is reported as 0.515. The “Plasma protein binding, % free” value with plasma protein (summary of Table 1 values) is given as over 50 % free. For the same compound, the oral clearance in [2] (human, ref Lelo et al. 1986) is 0.124 L/h/kg. The Hepatocyte metabolism entry in the data set with Hepatocyte is on record as “CYPA2, xanthine oxidase, or N-acetyltransferase 2”. For the same compound, the “oral clearance converted using 70 kg body weight” value in [3] (human, from ref Lelo et al. 1986) is 8.7 L/h.

As for `CCc1ccc(CCOc2ccc(CC3SC(=O)NC3=O)cc2)nc1` (stereo not shown) [Pioglitazone], the “underprediction of clearance by LAMPS compared to in vivo” value in [1] is listed as under 5 fold. Moreover, the plasma free fraction in the data set with plasma protein (ref Eckland and Danhof 2000) is on record as under 0.03. Moreover, the “plasma free fraction, previously reported measurement” value in the data set with plasma protein is given as 0.0441. Besides, in the data set on plasma protein, the “Fub, plasma” value is 0.008-0.04. Moreover, the estimated clearance in data set [2] ("wild type" individuals) is 2.12 L/h; in data set [2] (CYP2C8*3 carrier), 3.21 L/h. The oral clearance in [2] (human, ref Eckland and Danhof 2000) is 0.038 L/h/kg and 0.0529 L/h/kg and 0.0478 L/h/kg. Also, the absorption in data set [2] (ref Eckland and Danhof 2000) is 83%. Also, the “daily AUC” value in [2] (repeat dose, ref Budde et al. 2003) was 14,565 ug-hr/l. Besides, the AUC in [2] (single dose of 45 mg, ref Budde et al. 2003) is on record as 17,387 ug-hr/l. Further, the Hepatocyte metabolism result with Hepatocyte is “CYP2C8, CYP3A4, and conjugation with sulfate or glucuronic acid”. Moreover, the “mean oral clearance of available literature values” in [3] (human, oral) turned out to be 3.02 L/h. Also, the “mean oral clearance adjusted for absorption” value in data set [3] (human, oral, mean of all available values, adjusted for incomplete absorption) amounted to 2.51 L/h. Also, in data set [3] (human, from ref Eckland and Danhof 2000), the “oral clearance converted using 70 kg body weight” value is 2.66 L/h and 3.7 L/h and 3.35 L/h.

In the case of `CN(CCOc1ccc(CC2SC(=O)NC2=O)cc1)c1ccccn1` (stereo not shown) [Rosiglitazone], the free fraction in the data set on plasma protein (by ultrafiltration, ref Chapelsky et al. 2003) is recorded as 0.0016. In the data set on plasma protein, the “plasma free fraction, previously reported measurement” value is given as 0.0038 and the “Fub, plasma” value was 0.0016-0.036. Besides, in [2] (human, ref Chapelsky et al. 2003), the oral clearance is 3.07 L/h. The AUC in data set [2] (i.v. dose of 2 mg, ref Cox et al. 2000) was 744 ng·h/mL. For the same compound, the area under the curve (AUC) in data set [2] (oral dose of 8 mg, ref Cox et al. 2000) was 2,900 ng-hr/ml and 2,930 ng-hr/ml. For the same compound, the “parent compound in feces” value in data set [2] (radioactivity detected in feces, ref Cox et al. 2000) is reported as “no parent compound was detected”. Moreover, the Hepatocyte metabolism entry with Hepatocyte was “CYP2C8, CYP2C9, N-demethylation, and conjugation with sulfate or glucuronic acid”. Moreover, the bioavailability in data set [3] (human, oral, 8 mg) stood at 98%. The “mean oral clearance of available literature values” in data set [3] (human, oral) was determined as 2.85 L/h.

Turning to `CC(C)(C)c1ccc(C(O)CCCN2CCC(C(O)(c3ccccc3)c3ccccc3)CC2)cc1` (stereo not shown) [Terfenadine], the free fraction was 0.003 in the data set with plasma protein (by ultrafiltration, ref Awni et al. 1997) and 0.03 in the data set on plasma protein (source cited was a review, ref McTavish et al. 1990). For the same compound, the “plasma free fraction, previously reported measurement” value with plasma protein was 0.0219. In addition, in the data set on plasma protein, the “Fub, plasma” value is 0.003-0.022. Moreover, the exposure (AUC) in [2] (60 mg dose, ref Bergstrom et al. 1997) is 24.6 ng·h/mL; in data set [2] (120 mg dose, ref Stern et al. 1998), 20.14 ng·h/mL.

Take `Cc1ccc(C(=O)c2cc(O)c(O)c([N+](=O)[O-])c2)cc1` [Tolcapone]: in data set [4], the “clearance in primary cells versus iPSC-derived hepatocytes” value is recorded as “the opposite was true”. Also, in the data set on plasma protein (no source cited, ref Jorga et al. 1998), the unbound fraction was under 0.001. Further, the bound with plasma protein (ref Jorga et al. 1998) was over 99.9%. In the data set with plasma protein, the “plasma free fraction, previously reported measurement” value is 0.002 and the “Fub, plasma” value is <0.001-0.029. Besides, in data set [2] (ref Jorga et al. 1998), the i.v. clearance is 7.1 L/h and the oral clearance is 11.43 L/h. For the same compound, the “toxicity indicated by lactate dehydrogenase (LDH) and TNF-alpha release” value in data set [5] is given as “most toxic”. Also, in the data set on Hepatocyte, the Hepatocyte metabolism entry was “Conjugation with glucuronic acid”. In addition, the “CL/F adjusted for oral absorption” value in data set [3] (11.43*0.68, from ref Jorga et al. 1998) was 7.8 L/h. This compound displayed a bioavailability in data set [3] (human, oral) of 62%.

`Cc1c(C)c2c(c(C)c1O)CCC(C)(COc1ccc(CC3SC(=O)NC3=O)cc1)O2` (stereo not shown) [Troglitazone]: in [6], the free fraction (fraction unbound) is 0.017. The mean unbound fraction in the data set on plasma protein (by ultrafiltration, non-detects (one-third of subjects) not included, ref Ott et al. 1998) was 0.026. For the same compound, in the data set on plasma protein, the “plasma free fraction, previously reported measurement” value is 0.008. The “Fub, plasma” value in the data set with plasma protein is recorded as 0.0009-0.017. The area under the curve (AUC) in [2] (oral dose of 400 mg, ref Ott et al. 1998) was 7300 ng·h/mL. Moreover, the oral clearance in [2] (ref Loi et al. 1997) was 33.5 L/h; in [2] (three values, ref Loi et al. 1999), 30 L/h and 36.1 L/h and 29.8 L/h. The Hepatocyte metabolism result with Hepatocyte is “CYP3A4, and conjugation with sulfate or glucuronic acid”. The “oral clearance converted to” value in data set [3] (from ref Loi et al. 1997) was 33.5 L/h; in data set [3] (from ref Loi et al. 1999), 29.8 L/h and 30 L/h and 36 L/h. In addition, the “mean oral clearance of available literature values” in data set [3] (human, oral) stood at 36.8 L/h.

For the compound `N[C@@H]1[C@H]2CN(c3nc4c(cc3F)c(=O)c(C(=O)O)cn4-c3ccc(F)cc3F)C[C@@H]12` [Trovafloxacin], the “free fraction in serum” value in the data set with plasma protein (by equilibrium dialysis, ref Teng et al. 1995, Teng et al. 1996) is 0.3 and 0.238. Besides, the AUC in data set [2] (iv, 200 mg equivalent, ref Vincent et al. 1998) was 22000 ng·h/mL; in data set [2] (oral, 200 mg equivalent, ref Vincent et al. 1998) it was 32200 ng·h/mL. Also, in [5], the “toxicity indicated by lactate dehydrogenase (LDH) and TNF-alpha release” value is “most toxic”. In addition, the Hepatocyte metabolism result with Hepatocyte was “N-Acetylation, and conjugation with glucuronic acid”. Further, the bioavailability in [3] (human, oral, 200 mg equivalent) is over 100%.

Take `CC(=O)Nc1ccc(O)cc1` [acetaminophen]: in [7], the “half-life in the microphysiological system as compared to in vivo” value is listed as 6 fold.
